From US20200055948A1, “CELLS EXPRESSING A BCMA-TARGETING CHIMERIC ANTIGEN RECEPTOR, AND COMBINATION THERAPY WITH A GAMMA SECRETASE INHIBITOR” (Novartis AG, priority 2017, published 2020)

Assays:
shed/soluble BCMA = test: GSI inhibition of shed/soluble BCMA (sBCMA), ELISA of supernatants after 72 hours, NCI-H929, MM1S, U266B1 (Example 2, Table 30, FIG. 3); type: cell-based, human; conditions: for EC50: Homo sapiens, 72 hours, ELISA of supernatants; for efficacious concentrations, rank among the panel of GSIs: inhibition of BCMA shedding and enhancement of membrane BCMA, Table 30
Protocol: (§1) FIG. 3 is a panel of graphs comparing soluble/shed BCMA (sBCMA) levels to membrane-bound BCMA (mBCMA) levels in MM1S cell cultures treated with various gamma secretase inhibitors for 72 hours.
(§2) Target human cancer cell lines expressing various levels of human BCMA (NCI-H929^[High], MM1S^[med], U266B1^[low]) were all transduced to constitutively express luciferase, which is used to measure cell viability/survival with the BrightGlo reagent (Promega E2650). Target cells were plated 30,000 cells per well in a 96 well plate (Costar 3904) together with serial dilutions of a panel of gamma secretase inhibitors (Table 29). The plate was incubated at 37° C./5% CO2 for 72 hours, followed by measurements of cell viability (BrightGlo, Promega # E2650) according to vendor protocol. In a replicate set of assay plates, cell culture supernatants were collected by centrifugation and quantified for levels of soluble BCMA by ELISA (R&D Systems, DY193), and the remaining cells were stained with a PE conjugated BCMA antibody (clone 19F2, Biolegend 357504) and analyzed by flow cytometry for BCMA cell surface expression levels.
(§3) Raw OD450 values from the BCMA ELISA were plotted together with the mean fluorescent intensity values from flow cytometry analysis of cells stained with anti-BCMA antibody, and are shown for MM1S cells treated with the various GSIs in FIG. 3. Table 30 summarizes the EC50 results of all the GSIs on the three BCMA-expressing cell lines.

membrane BCMA expression = test: GSI enhancement of membrane BCMA (mBCMA) expression, flow cytometry after 72 hours, NCI-H929, MM1S, U266B1 (Example 2, Table 30, FIG. 3); type: cell-based; conditions: Homo sapiens
Protocol: as §1, §2, §3

[1] = system: BCMA cell surface expression; test: BCMA cell surface expression by flow cytometry with PE conjugated BCMA antibody, with or without GSI (Example 1, FIG. 1); type: cell-based, human; conditions: BCMA-expressing multiple myeloma cell lines
Protocol: FIG. 1 is a set of histogram plots showing the staining of BCMA-expressing human cancer cell lines, NCI-H929, MM1S, and U266B1, using a PE conjugated anti-BCMA antibody. The cell lines were untreated, or treated with 1.0 μM DAPT or 0.1 μM LY-411,575 before subjected to a flow cytometry analysis.
Human cancer cell lines expressing various levels of human BCMA (NCI-H929^[High] MM1S^[Med], and U266B1^[low]) were all transduced to constitutively express luciferase, which is used to measure cell viability/survival with the BrightGlo reagent (Promega # E2650).
BCMA expressing cell lines were treated overnight with and without GSIs. Cell culture supernatants were collected and quantified for levels of soluble BCMA by ELISA (R&D Systems, # DY193). Additionally, remaining cells were pelleted, stained with a PE conjugated BCMA antibody (clone 19F2, Biolegend #357504) and analyzed by flow cytometry for BCMA cell surface expression levels.
BCMA cell surface expression level was determined by flow cytometry on cell lines with or without GSI treatment.

soluble BCMA = test: Soluble BCMA in supernatants of MM cell lines U266 or RPMI 8226 by sandwich ELISA after 48 hrs GSI (Example 3, FIGS. 5A and 5B); type: cell-based, human; conditions: RPMI 8226 cells treated, 6 μM-100 μM
Protocol: FIGS. 5A and 5B are a pair of graphs showing that a gamma secretase inhibitor reduces soluble BCMA released by MM cell lines. In FIGS. 5A and 5B, the amount of soluble BCMA (pg/ml) as measured by ELISA is plotted for each GSI concentration tested.
MM cell lines U266 or RPMI 8226 were incubated with several concentrations (6 μM-100 μM) of Ly 411575 gamma secretase inhibitor (Miltenyi) for 48 hrs. Supernatants were collected and secreted BCMA was measured using a sandwich ELISA (BCMA/TNFRSF17 ELISA Duo set, R&D Systems).

| Compound | EC50 (shed/soluble BCMA; MM1.S, MM1S cells) | EC50 (shed/soluble BCMA; NCI-H929, H929 cells) | EC50 (membrane BCMA expression; MM1.S, MM1S cells) | EC50 (membrane BCMA expression; NCI-H929, H929 cells) | EC50 (membrane BCMA expression; U266B1 cells) | EC50 (shed/soluble BCMA; U266B1 cells) | efficacious concentrations, rank among the panel of GSIs (shed/soluble BCMA) | cell surface expression of BCMA (in words) [1] | secreted BCMA (soluble BCMA) |
| --- | --- | --- | --- | --- | --- | --- | --- | --- | --- |
| C[C@H](c1ccc(F)cc1CCCC(=O)O)N(c1cc(F)ccc1F)S(=O)(=O)c1ccc(Cl)cc1 [BMS-299897] | 0.8 µM | 0.528 µM | 0.485 µM | 0.152 µM | 1.69 µM |  | least |  |  |
| NC(=O)[C@@H](CCC(F)(F)F)N(Cc1ccc(-c2ncon2)cc1F)S(=O)(=O)c1ccc(Cl)cc1 [BMS-708163, (R)-2-((4-chloro-N-(2-fluoro-4-(1,2,4-oxadiazol-3-yl)benzyl)phenyl)sulfonamido)-5,5,5-trifluoropentanamide] | 0.0133 µM | 0.0025 µM | 0.0074 µM | 0.0036 µM | 0.0324 µM | 0.0298 µM |  |  |  |
| C[C@H](NC(=O)Cc1cc(F)cc(F)c1)C(=O)N[C@H](C(=O)OC(C)(C)C)c1ccccc1 [DAPT] | 0.144 µM | 0.22 µM | 0.0974 µM | 0.145 µM | 0.401 µM | 0.459 µM |  | strongly enhances |  |
| C[C@H](NC(=O)[C@@H](O)c1cc(F)cc(F)c1)C(=O)N[C@@H]1C(=O)N(C)c2ccccc2-c2ccccc21 [LY-411575, (S)-2-((S)-2-(3,5-difluorophenyl)-2-hydroxyacetamido)-N—((S)-5-methyl-6-oxo-6,7-dihydro-5H-dibenzo[b,c]azepin-7-yl)propanamide] | 0.0001 µM | 0.0002 µM |  | 0.0001 µM | 0.0001 µM | 0.0001 µM | most potent | strongly enhances | 200 pg/mL |
| CC(C)[C@H](O)C(=O)N[C@@H](C)C(=O)N[C@@H]1C(=O)N(C)CCc2ccccc21 [LY-450139, (S)-2-hydroxy-3-methyl-N—((S)-1-(((S)-3-methyl-2-oxo-2,3,4,5-tetrahydro-1H-benzo[d]azepin-1-yl)amino)-1-oxopropan-2-yl)butanamide] | 0.065 µM | 0.0999 µM | 0.0407 µM | 0.0548 µM | 0.19 µM | 0.236 µM |  |  |  |
| O=C(O)CC[C@H]1CC[C@@](c2cc(F)ccc2F)(S(=O)(=O)c2ccc(Cl)cc2)CC1 [MK-0752, 3-((1S,4R)-4-((4-chlorophenyl)sulfonyl)-4-(2,5-difluorophenyl)cyclohexyl)propanoic acid] | 0.566 µM | 0.269 µM | 0.332 µM | 0.0693 µM | 1.21 µM | 1.06 µM |  |  |  |

Now from value to molecule, other results behind:

| EC50 (shed/soluble BCMA; MM1.S, MM1S cells) | EC50 (shed/soluble BCMA; NCI-H929, H929 cells) | EC50 (membrane BCMA expression; MM1.S, MM1S cells) | EC50 (membrane BCMA expression; NCI-H929, H929 cells) | EC50 (membrane BCMA expression; U266B1 cells) | EC50 (shed/soluble BCMA; U266B1 cells) | Compound | efficacious concentrations, rank among the panel of GSIs (shed/soluble BCMA) | cell surface expression of BCMA (in words) [1] | secreted BCMA (soluble BCMA) |
| --- | --- | --- | --- | --- | --- | --- | --- | --- | --- |
| 0.0322 µM | 0.0348 µM | 0.0366 µM | 0.0316 µM | 0.0704 µM | 0.0672 µM | CCC[C@H](N[C@H]1CCc2cc(F)cc(F)c2C1)C(=O)Nc1cn(C(C)(C)CNCC(C)(C)C)cn1 [PF-3084014, (S)-2-(((S)-6,8-difluoro-1,2,3,4-tetrahydronaphthalen-2-yl)amino)-N-(1-(2-methyl-1-(neopentylamino)propan-2-yl)-1H-imidazol-4-yl)pentanamide] |  |  |  |
| 0.121 µM | 0.137 µM | 0.0522 µM | 0.0138 µM | 0.56 µM | 0.583 µM | O=S(=O)(N[C@@H](CO)C(C(F)(F)F)C(F)(F)F)c1ccc(Cl)s1 [PF-5212362, (R)-5-chloro-N-(4,4,4-trifluoro-1-hydroxy-3-(trifluoromethyl)butan-2-yl)thiophene-2-sulfonamide] |  |  |  |
| 0.0046 µM | 0.003 µM | 0.0032 µM | 0.0044 µM | 0.0101 µM | 0.0062 µM | CC(C)(C(=O)NCC(F)(F)C(F)(F)F)C(=O)N[C@@H]1C(=O)Nc2ccccc2-c2ccccc21 [RO4929097] |  |  |  |
